# From US8063231B2, “Methods of treating alpha adrenergic mediated conditions” (Allergan, Inc., priority 2008, dated 2011)
# Where “and” joins values, the source holds several entries; their conditions need not be identical. Equal values may be shown once.
# Key:
# wild type rats = test: Sedative effects (total activity counts) after intraperitoneal injection; format: in vivo, rat; details: for Sedative Effect (IP): 30 minutes post injection
# Method: FIG. 2 depicts sedative effects (total activity counts) 30 minutes post intraperitoneal injection of 1 mg/kg and 10 mg/kg doses of N-(2,3-dichlorobenzyl)-4,5-dihydro-1H-imidazol-2-amine.
# Data was acquired from wild type rats administered N-(2,3-dichlorobenzyl)-4,5-dihydro-1H-imidazol-2-amine intraperitoneally (IP). Rats were split into groups of six and administered 1 mg/kg or 10 mg/kg doses of N-(2,3-dichlorobenzyl)-4,5-dihydro-1H-imidazol-2-amine to assess the sedative effects of the administration of the agent.
# Chung model rats = test: Tactile allodynia reversal in Chung model of chronic pain (spinal nerve ligation, von Frey hairs); format: in vivo, rat
# Method: Various concentrations of N-(2,3-dichlorobenzyl)-4,5-dihydro-1H-imidazol-2-amine were administered orally to Chung model rats. A model in accordance with Kim and Chung 1992, Pain […], pp 355-363 (Chung model), for chronic pain (in particular peripheral neuropathy) involves the surgical ligation of the L5 (and optionally the L6) spinal nerves on one side in experimental animals. Rats recovering from the surgery gain weight and display a level of general activity similar to that of normal rats. However, these rats develop abnormalities of the foot, wherein the hindpaw is moderately everted and the toes are held together. More importantly, the hindpaw on the side affected by the surgery appears to become sensitive to pain from low-threshold mechanical stimuli, such as that producing a faint sensation of touch in a human, within about 1 week following surgery. This sensitivity to normally non-painful touch is called “tactile allodynia” and lasts for at least two months. The response includes lifting the affected hindpaw to escape from the stimulus, licking the paw and holding it in the air for many seconds. None of these responses is normally seen in the control group.
# Rats are anesthetized before surgery. The surgical site is shaved and prepared either with betadine or Novacaine. Incision is made from the thoracic vertebra XIII down toward the sacrum. Muscle tissue is separated from the spinal vertebra (left side) at the L4-S2 levels. The L6 vertebra is located and the transverse process is carefully removed with a small rongeur to expose the L4-L6 spinal nerves. The L5 and L6 spinal nerves are isolated and tightly ligated with 6-0 silk thread. The same procedure is done on the right side as a control, except no ligation of the spinal nerves is performed.
# A complete hemostasis is confirmed, then the wounds are sutured. A small amount of antibiotic ointment is applied to the incised area, and the rat is transferred to the recovery plastic cage under a regulated heat-temperature lamp. On the day of the experiment, at least seven days after the surgery, typically six rats per test group are administered the test drugs by intraperitoneal (i.p.) injection or oral gavage. […], the compounds are formulated in d H2O and given in a volume of 1 ml/kg body weight using an 18-gauge, 3 inch gavage needle that is slowly inserted through the esophagus into the stomach.
# Tactile allodynia is measured prior to and 30 minutes after drug administration using von Frey hairs that are a series of fine hairs with incremental differences in stiffness. Rats are placed in a plastic cage with a wire mesh bottom and allowed to acclimate for approximately 30 minutes. The von Frey hairs are applied perpendicularly through the mesh to the mid-plantar region of the rats' hindpaw with sufficient force to cause slight buckling and held for 6-8 seconds. The applied force has been calculated to range from 0.41 to 15.1 grams. If the paw is sharply withdrawn, it is considered a positive response. A normal animal will not respond to stimuli in this range, but a surgically ligated paw will be withdrawn in response to a 1-2 gram hair. The 50% paw withdrawal threshold is determined using the method of Dixon, W. J., Ann. Rev. Pharmacol. Toxicol. 20:441-462 (1980) hereby incorporated by reference. The post-drug threshold is compared to the pre-drug threshold and the percent reversal of tactile sensitivity is calculated based on a normal threshold of 15.1 grams.
smiles,measurement,setting,value
"Clc1cccc(CNC2=NCCN2)c1Cl [N-(2,3-dichlorobenzyl)-4,5-dihydro-1H-imidazol-2-amine]",Sedative Effect (IP),wild type rats; 1 mg/kg IP,No significant effect
same,Sedative effect (in words),wild type rats; 10 mg/kg IP,significant sedative effect
same,Sedative Effect (IP),wild type rats; 10 mg/kg IP,23% sedating
same,"Peak Allodynia Reversal (Oral, 30 min.)",Chung model rats; 30 μg/kg oral,28% and 28% +/− 9.5%
same,"Peak Allodynia Reversal (Oral, 30 min.)",Chung model rats; 100 μg/kg oral,68% +/− 12.7%
same,"Peak Allodynia Reversal (Oral, 30 min.)",Chung model rats; 300 μg/kg oral,84% +/− 7.5%
same,Time at which analgesic effect was seen (peak percent allodynia reversal),"Chung model rats; single oral dose, FIG. 1",about 30 minutes
same,Time of decrease of allodynia reversal to baseline,"Chung model rats; single oral dose, FIG. 1",about 120 minutes
